What was measured:
[1] = biological target: T1, PDK1 (Homo sapiens, UniProt O15530); assay: Test for the inhibition of PDK1 (flashplate, 33P-ATP); type: biochemical; conditions: His6-PDK1 3.4 nM, 4 μM ATP, 30° C., 60 min
T1 construct: His6 (N)
Protocol: The experimental batches are carried out in a flashplate system with 384 wells/microtitration plate.
In each case, the PDK1 sample His6-PDK1(SEQ ID NO: 2)(1-50)(3.4 nM), the PDK1 substrate biotin-bA-bA-[…] (SEQ ID NO: 3) (400 nM), 4 μM ATP (with 0.2 μCi of ^33P-ATP/well) and the test substance in 50 μl of conventional experimental solution per well are incubated at 30° C. for 60 min. The test substances are employed in corresponding concentrations (if desired in a dilution series). The control is carried out without test substance. The reaction is stopped using standard methods and washed. The activity of the kinase is measured via the incorporated radioactivity in top count. In order to determine the non-specific kinase reaction (blank value), the experimental batches are carried out in the presence of 100 nM staurosporin.
The radioactivity (decompositions per minute) of the blank value (no use of test substance in the presence of staurosporin) is subtracted from all other radioactivity values. The controls (kinase activity without test substance) are set equal to 100 percent and all other radioactivity values (after subtracting the blank value) are expressed set in relation thereto (for example in % of the control).
IC50 values (50% inhibition) are determined with the aid of statistics programmes, such as, for example, RS1.

[2] = tested on: PDK1 kinase activity in PC3 cells (phospho-T308-PKB); assay: Cellular testing of PDK1 kinase inhibitors in PC3 cells (Luminex, phospho-T308-PKB); type: cell-based; conditions: Homo sapiens, PC-3, 0.5 h, 30 min with test substance, serum-free, phospho-T308-PKB by Luminex, read-out: IC50 [PC3 P-PKB Thr308]
Protocol: Method for the Cellular Testing of PDK1 Kinase Inhibitors in PC3 Cells.
The cellular assay for the determination of the PDK1 kinase activity is carried out as a Luminex assay in the 96-well format. PC3 cells are sown at 20,000 cells per well in 100 μl of medium (45% of […]/45% of Ham's F12/10% of FCS) and incubated on the following day for 30 min with a serial dilution of the test substance (7 concentrations) under serum-free conditions. The cells are subsequently lysed using 90 μl of lysis buffer (20 mM tris/HCl pH 8.0, 150 mM NaCl, 1% of NP40, 10% of glycerol, 1% of phosphatase inhibitor I, 1% of phosphatase inhibitor II, 0.1% of protease inhibitor cocktail III, 0.01% of benzonase) per well, and the lysates are separated off from insoluble cell constituents by means of centrifugation through a 96-well filter plate (0.65 μm). The lysates are incubated overnight at 4° C. with shaking with Luminex beads to which an anti-total PKB antibody is coupled. The detection is carried out on the following day by addition of a phospho-T308-PKB antibody and a species-specific […] secondary antibody. The detection of phospho-T308-PKB is carried out by measurement in a Luminex100 instrument by determination of 100 events per cavity in a measurement time of 60 sec. As pharmacological blank, the signals obtained from cells which have been treated with 10 μM staurosporin are subtracted from all other batches. The control value used for maximum phosphorylation of PKB on T308 are the signals from cells which have only been treated with the solvent (0.3% of DMSO). The values of the batches treated with test substance are calculated therefrom as percentage of control, and IC50 values are determined by means of RS1.

T1 sequence (O15530 51-556): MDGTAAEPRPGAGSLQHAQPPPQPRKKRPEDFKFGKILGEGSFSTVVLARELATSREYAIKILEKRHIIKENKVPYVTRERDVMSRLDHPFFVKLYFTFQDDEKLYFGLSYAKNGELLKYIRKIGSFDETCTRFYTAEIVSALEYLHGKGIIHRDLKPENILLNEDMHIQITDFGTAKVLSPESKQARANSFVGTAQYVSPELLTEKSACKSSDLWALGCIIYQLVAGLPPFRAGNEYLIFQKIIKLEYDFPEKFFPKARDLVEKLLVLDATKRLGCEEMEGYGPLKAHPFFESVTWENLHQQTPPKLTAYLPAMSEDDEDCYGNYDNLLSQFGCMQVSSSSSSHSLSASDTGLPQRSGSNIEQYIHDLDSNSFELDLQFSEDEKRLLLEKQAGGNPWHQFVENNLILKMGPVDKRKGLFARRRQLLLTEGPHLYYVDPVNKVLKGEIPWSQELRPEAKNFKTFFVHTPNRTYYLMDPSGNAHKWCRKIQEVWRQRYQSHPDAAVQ

Structure (SMILES)	IC50 [1]	IC50 [2]
CCc1cc(-c2c[nH]c3ncc(-c4cnn(CC(=O)O)c4)cc23)nc(N)n1 [Compound A31, {4-[3-(2-Amino-6-ethylpyrimidin-4-yl)-1H-pyrrolo[2,3-b]pyridin-5-yl]pyrazol-1-yl}acetylic acid]	10 to 1000 nM	10000 to 20000 nM
CCc1cc(-c2c[nH]c3ncc(-c4cnn(CC(=O)N5CCN(C)CC5)c4)cc23)nc(N)n1 [Compound A29, 2-{4-[3-(2-Amino-6-ethylpyrimidin-4-yl)-1H-pyrrolo[2,3-b]pyridin-5-yl]pyrazol-1-yl}-1-(4-methylpiperazin-1-yl)ethanone]	10 to 1000 nM	10000 to 20000 nM
CC(C)n1cc(-c2cnc3[nH]cc(-c4cc(C5(O)CCCC5)nc(N)n4)c3c2)cn1 [Compound A54, 1-{2-Amino-6-[5-(1-isopropyl-1H-pyrazol-4-yl)-1H-pyrrolo[2,3-b]pyridin-3-yl]-pyrimidin-4-yl}cyclopentanol]	10 to 1000 nM	10000 to 20000 nM
CCc1cc(-c2c[nH]c3ncc(-c4cnn(CC(=O)N(C)C)c4)cc23)nc(N)n1 [Compound A34, 2-{4-[3-(2-Amino-6-ethylpyrimidin-4-yl)-1H-pyrrolo[2,3-b]pyridin-5-yl]pyrazol-1-yl}-N,N-dimethylacetamide]	10 to 1000 nM	10000 to 20000 nM
CCc1cc(-c2c[nH]c3ncc(-c4cccc(C(=O)NCCN(C)C)c4)cc23)nc(N)n1 [Compound A11, 3-[3-(2-amino-6-ethylpyrimidin-4-yl)-1H-pyrrolo-[2,3-b]pyridin-5-yl]-N-(2-dimethylaminoethyl)benzamide]	10 to 1000 nM	10000 to 20000 nM
CC(C)n1cc(-c2cnc3[nH]cc(-c4cc(CCCO)nc(N)n4)c3c2)cn1 [Compound A38, 3-{2-Amino-6-[5-(1-isopropyl-1H-pyrazol-4-yl)-1H-pyrrolo[2,3-b]pyridin-3-yl]-pyrimidin-4-yl}propan-1-ol]	10 to 1000 nM	10000 to 20000 nM
CCc1cc(-c2c[nH]c3ncc(-c4cnn(C5CCN(C(C)=O)CC5)c4)cc23)nc(N)n1 [Compound A46, 1-(4-{4-[3-(2-Amino-6-ethylpyrimidin-4-yl)-1H-pyrrolo[2,3-b]pyridin-5-yl]-pyrazol-1-yl}piperidin-1-yl)ethanone]	10 to 1000 nM	10000 to 20000 nM
CC(C)n1cc(-c2cnc3[nH]cc(-c4cc(CCCCO)nc(N)n4)c3c2)cn1 [Compound A40, 4-{2-Amino-6-[5-(1-isopropyl-1H-pyrazol-4-yl)-1H-pyrrolo[2,3-b]pyridin-3-yl]-pyrimidin-4-yl}butan-1-ol]	10 to 1000 nM	1000 to 10000 nM
Nc1nc(CCN2CCOCC2)cc(-c2c[nH]c3ncccc23)n1 [Compound A49, 4-(2-Morpholin-4-ylethyl)-6-(1H-pyrrolo[2,3-b]pyridin-3-yl)pyrimidin-2-ylamine]	1000 to 10000 nM	10000 to 20000 nM
CCc1cc(-c2c[nH]c3ncc(-c4cnn(CC(=O)NC)c4)cc23)nc(N)n1 [Compound A51, 2-{4-[3-(2-Amino-6-ethylpyrimidin-4-yl)-1H-pyrrolo[2,3-b]pyridin-5-yl]pyrazol-1-yl}-N-methylacetamide]	10 to 1000 nM	10000 to 20000 nM
CN(C)CCn1cc(-c2cnc3[nH]cc(-c4cc(CCN5CCN(C)CC5)nc(N)n4)c3c2)cn1 [Compound A41, 4-{5-[1-(2-Dimethylaminoethyl)-1H-pyrazol-4-yl]-1H-pyrrolo[2,3-b]pyridin-3-yl}-6-[2-(4-methylpiperazin-1-yl)ethyl]pyrimidin-2-ylamine]	10 to 1000 nM	10000 to 20000 nM
CCc1cc(-c2c[nH]c3ncc(-c4cnn(CC(=O)NC5CC5)c4)cc23)nc(N)n1 [Compound A52, 2-{4-[3-(2-Amino-6-ethylpyrimidin-4-yl)-1H-pyrrolo[2,3-b]pyridin-5-yl]pyrazol-1-yl}-N-cyclopropylacetamide]	10 to 1000 nM	10000 to 20000 nM

Next, values leading:

IC50 [1]	IC50 [2]	Structure (SMILES)
10 to 1000 nM	1000 to 10000 nM	CCCCc1cc(-c2c[nH]c3ncc(-c4cnn(CCO)c4)cc23)nc(N)n1 [Compound A88, 2-{4-[3-(2-Amino-6-butylpyrimidin-4-yl)-1H-pyrrolo[2,3-b]pyridin-5-yl]pyrazol-1-yl}ethanol]
10 to 1000 nM	10000 to 20000 nM	CC(=O)NCCCc1cc(-c2c[nH]c3ncc(-c4cnn(C(C)C)c4)cc23)nc(N)n1 [Compound A97, N-(3-{2-Amino-6-[5-(1-isopropyl-1H-pyrazol-4-yl)-1H-pyrrolo[2,3-b]pyridin-3-yl]pyrimidin-4-yl}propyl)acetamide]
1000 to 10000 nM	10000 to 20000 nM	CC(C)n1cc(-c2cnc3[nH]cc(-c4cc(C5(O)CCNCC5)nc(N)n4)c3c2)cn1 [Compound A125, 4-{2-Amino-6-[5-(1-isopropyl-1H-pyrazol-4-yl)-1H-pyrrolo[2,3-b]pyridin-3-yl]-pyrimidin-4-yl}piperidin-4-ol]
10 to 1000 nM	10000 to 20000 nM	CC(C)n1cc(-c2cnc3[nH]cc(-c4cc(CCC(=O)N(C)C)nc(N)n4)c3c2)cn1 [Compound A101, 3-{2-Amino-6-[5-(1-isopropyl-1H-pyrazol-4-yl)-1H-pyrrolo[2,3-b]pyridin-3-yl]-pyrimidin-4-yl}-N,N-dimethylpropionamide]
10 to 1000 nM	1000 to 10000 nM	CCCCc1cc(-c2c[nH]c3ncc(-c4cnn(C5CCN(C(C)=O)CC5)c4)cc23)nc(N)n1 [Compound A86, 1-(4-{4-[3-(2-Amino-6-butylpyrimidin-4-yl)-1H-pyrrolo[2,3-b]pyridin-5-yl]-pyrazol-1-yl}piperidin-1-yl)ethanone]
10 to 1000 nM	1000 to 10000 nM	CCCCc1cc(-c2c[nH]c3ncc(-c4cnn(C5CCN(C)CC5)c4)cc23)nc(N)n1 [Compound A89, 4-Butyl-6-{5-[1-(1-methylpiperidin-4-yl)-1H-pyrazol-4-yl]-1H-pyrrolo[2,3-b]-pyridin-3-yl}pyrimidin-2-ylamine]
1000 to 10000 nM	10000 to 20000 nM	CC(C)n1cc(-c2cnc3[nH]cc(-c4cc(C(O)c5ccccc5)nc(N)n4)c3c2)cn1 (stereo not shown) [Compound A115, {2-Amino-6-[5-(1-isopropyl-1H-pyrazol-4-yl)-1H-pyrrolo[2,3-b]pyridin-3-yl]-pyrimidin-4-yl}phenylmethanol]
10 to 1000 nM	1000 to 10000 nM	CCCCc1cc(-c2c[nH]c3ncc(-c4cnn(CC(=O)N5CCCCC5)c4)cc23)nc(N)n1 [Compound A58, 2-{4-[3-(2-amino-6-butylpyrimidin-4-yl)-1H-pyrrolo[2,3-b]pyridin-5-yl]-pyrazol-1-yl}-1-piperidin-1-ylethanone]

Source: US8420820B2, “Pyrrolopyridinylpyrimidin-2-ylamine derivatives” (Merck Patent GmbH, priority 2008, dated 2013)
